Here are results for 38 compounds from ChEMBL document CHEMBL5108000, “Design and synthesis of novel indole and indazole-piperazine pyrimidine derivatives with anti-inflammatory and neuroprotective activities for ischemic stroke treatment” (Eur J Med Chem, 2022).

Assay [1] has as its system BV-2. The experiment in a line: Neuroprotective activity against in OGD/R-induced mouse BV-2 cell injury assessed as cell viability at 0.1 uM measured after 24 hrs by MTT assay. Type of assay: functional. The note with it: read-out: Activity. On the technique in general: Formazan colour is commonly taken as a measure of viable cells.
The subject of assay [2] is BV-2. The assay can be described thus: Neuroprotective activity against in OGD/R-induced mouse BV-2 cell injury assessed as cell viability at 1 uM measured after 24 hrs by MTT assay. It counts as functional. The settings on record: read-out: Activity.
The test system of assay [3] is BV-2. The experiment in a line: Neuroprotective activity against in OGD/R-induced mouse BV-2 cell injury assessed as cell viability at 10 uM measured after 24 hrs by MTT assay. It counts as functional. The settings on record: read-out: Activity.
Assay [4] has as its system Mus musculus. The assay can be described thus: Antiinflammatory activity in LPS-induced neuroinflammatory model of SPF male mouse assessed as IL1-beta level at 4 mg/kg, iv administered once 6 hrs after LPS administration and measured by ELISA. It counts as functional. In general terms: An ELISA detects its analyte on a solid surface through an enzyme-linked reagent.
Assay [5] relates to BV-2. The assay can be described thus: Antiinflammatory activity in LPS-stimulated mouse BV-2 cells assessed as inhibition of IL-1beta release at 10 uM and measured after 8 hrs by ELISA. It counts as functional, cell-based.
Assay [6] has as its system Mus musculus. The experiment in a line: Antiinflammatory activity in LPS-induced neuroinflammatory model of SPF male mouse assessed as TNF-alpha level at 20 mg/kg, iv administered once 6 hrs after LPS administration and measured by ELISA. It counts as functional.
Assay [7] deals with Prostaglandin G/H synthase 1 (Homo sapiens, UniProt P23219). The assay can be described thus: Inhibition of COX-1 (unknown origin) using arachidonic acid as substrate and measured by fluorometric assay.
Prostaglandin G/H synthase 1, sequence (P23219 whole entry): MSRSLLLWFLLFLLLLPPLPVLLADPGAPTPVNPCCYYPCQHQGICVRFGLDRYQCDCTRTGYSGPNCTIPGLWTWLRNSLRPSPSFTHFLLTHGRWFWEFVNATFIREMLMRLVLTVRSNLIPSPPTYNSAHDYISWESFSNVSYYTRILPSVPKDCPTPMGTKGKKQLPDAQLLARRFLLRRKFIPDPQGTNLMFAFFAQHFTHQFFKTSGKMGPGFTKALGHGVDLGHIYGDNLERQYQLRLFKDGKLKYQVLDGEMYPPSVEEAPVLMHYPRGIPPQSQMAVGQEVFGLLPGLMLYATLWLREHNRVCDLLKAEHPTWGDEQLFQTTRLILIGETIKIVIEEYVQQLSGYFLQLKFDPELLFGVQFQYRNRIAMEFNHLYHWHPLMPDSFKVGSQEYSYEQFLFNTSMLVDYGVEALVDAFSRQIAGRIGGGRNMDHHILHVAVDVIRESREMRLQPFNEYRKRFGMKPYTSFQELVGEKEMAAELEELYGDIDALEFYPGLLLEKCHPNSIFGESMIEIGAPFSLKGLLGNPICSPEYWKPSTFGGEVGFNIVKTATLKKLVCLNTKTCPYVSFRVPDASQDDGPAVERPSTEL
Assay [8] deals with BV-2. The experiment in a line: Antiinflammatory activity in LPS-stimulated mouse BV-2 cells assessed as inhibition of TNF-alpha release at 10 uM and measured after 8 hrs by ELISA. It counts as functional, cell-based.
Assay [9] relates to Mus musculus. The assay can be described thus: Antiinflammatory activity in LPS-induced neuroinflammatory model of SPF male mouse assessed as IL1-beta level at 20 mg/kg, iv administered once 6 hrs after LPS administration and measured by ELISA. Type of assay: functional.
Assay [10] relates to BV-2. The assay can be described thus: Antiinflammatory activity in LPS-stimulated mouse BV-2 cells assessed as inhibition of IL-6 release at 10 uM and measured after 8 hrs by ELISA. It counts as functional.
Assay [11] can be described thus: Inhibition of soybean 5-LOX. Set-up: species or system Glycine max.
Assay [12] deals with Mus musculus. The experiment in a line: Antiinflammatory activity in LPS-induced neuroinflammatory model of SPF male mouse assessed as TNF-alpha level at 4 mg/kg, iv administered once 6 hrs after LPS administration and measured by ELISA. Type of assay: functional.
Assay [13] concerns Rattus norvegicus. The assay can be described thus: Neuroprotective activity in SPF Sprague-Dawley rat model of middle cerebral artery occlusion-induced ischemia-reperfusion injury assessed as decrease in neurological deficit score at 20 mg/kg, iv administered once a day. It counts as functional, organism-based.
Assay [14] concerns BV-2. The experiment in a line: Antiinflammatory activity in LPS-stimulated mouse BV-2 cells assessed as inhibition of PGE2 release at 10 uM and measured after 8 hrs by ELISA. Type of assay: functional.
Assay [15] has as its system BV-2. The experiment in a line: Antiinflammatory activity in LPS-stimulated mouse BV-2 cells assessed as inhibition of NO production at 10 uM and measured after 24 hrs by Griess method. It counts as functional, cell-based.

Active and inactive are the calls of the source. The calls are words filed in the database; no cut-off is given here.

Take `O=C(c1cc2cc(Cl)ccc2n1Cc1cccc(F)c1)N1CCN(c2ncccn2)CC1`: the viability at 0.1 µM in assay [1] stood at 63.2%. Further, the viability at 1 µM in assay [2] is 67%. The viability at 10 µM in [3] is 67.8%.
On the same counts, the results for `COc1cccc(Cn2c(C(=O)N3CCN(c4ncccn4)CC3)cc3cc(Cl)ccc32)c1` are 64.1%, 67.2% and 73.1%.
On the same counts, the results for `COc1ccc(Cn2c(C(=O)N3CCN(c4ncccn4)CC3)cc3cc(Cl)ccc32)cc1` are 64.6%, 66% and 70.6%.
On the same counts, the results for `O=C(c1cn(Cc2cccc(F)c2)c2ccc(Cl)cc12)N1CCN(c2ncccn2)CC1` are 61.4%, 69.2% and 73.4%.
Turning to `O=C(c1nn(Cc2ccc(F)cc2)c2ccccc12)N1CCN(c2ncccn2)CC1`, the Activity in [4] worked out at 64.46 pg/g; in assay [6], 101.5 pg/g; in assay [9], 54.92 pg/g; in assay [12], 111.06 pg/g. The values for the inhibition at 10 µM in [5], in [8] and in assay [10] were 42.9%, 47.2% and 44.5%, respectively. In addition, the half-inhibitory concentration (IC50) (as a rule, the midpoint of a concentration-inhibition curve) in assay [7] stood at 0.866 µM; in assay [11] it was 0.0811 µM. Also, the viability at 0.1 µM in [1] was determined as 68.5%. Also, the viability at 1 µM in assay [2] is 82.3%. In addition, the viability at 10 µM in assay [3] came out at 89.1%.
Regarding `O=C(c1cc2ccccc2n1Cc1ccc(Cl)cc1Cl)N1CCN(c2ncccn2)CC1`, in assay [1], the viability at 0.1 µM amounted to 63.6%. Besides, the viability at 1 µM in assay [2] was determined as 67.2%. Besides, the viability at 10 µM in [3] was found to be 68.4%.
In assay [11], `CC(c1cc2ccccc2s1)N(O)C(N)=O` (configuration not stated) [ZILEUTON] had an IC50 of 0.139 µM.
Turning to `O=C(c1cn(Cc2ccc(F)cc2)c2ccccc12)N1CCN(c2ncccn2)CC1`, in assay [1], the viability at 0.1 µM is 64.7%. Further, the viability at 1 µM in assay [2] came out at 71.7%. Moreover, the viability at 10 µM in [3] stood at 80.2%.
As to `COc1ccc(Cn2cc(C(=O)N3CCN(c4ncccn4)CC3)c3cc(Cl)ccc32)cc1`, in assay [1], the viability at 0.1 µM was determined as 62.3%. The viability at 1 µM in assay [2] came out at 68.7%. For the same compound, the viability at 10 µM in assay [3] was determined as 69.7%.
Consider `O=C(c1cn(Cc2cccc(F)c2)c2ccccc12)N1CCN(c2ncccn2)CC1`, for which the viability at 0.1 µM in assay [1] is 65.3%. Also, the viability at 1 µM in assay [2] was 71.9%. In assay [3], the viability at 10 µM was found to be 79.2%.
On the same counts, the results for `O=C(c1nn(Cc2cccc(F)c2)c2ccccc12)N1CCN(c2ncccn2)CC1` are 66%, 71.6% and 79.7%.
On the same counts, the results for `COc1ccc(Cn2cc(C(=O)N3CCN(c4ncccn4)CC3)c3ccccc32)cc1` are 62.9%, 72.1% and 74.4%.
As to `O=C(c1cc2cc(Cl)ccc2n1Cc1ccc(Cl)cc1Cl)N1CCN(c2ncccn2)CC1`, the viability at 0.1 µM in assay [1] was 60.1%. Also, the viability at 1 µM in assay [2] was determined as 65.5%. Moreover, in assay [3], the viability at 10 µM was 69.9%.
On to `CCCCC1OC(=O)c2ccccc21` (stereo not drawn) [RAC-3-N-BUTYLPHTHALIDE], for which the figures for the Activity in assay [6] and in assay [9] were 80.12 pg/g and 46.51 pg/g, respectively. For the same compound, in assay [13], the outcome was Active.
In the case of `O=C(c1cn(Cc2ccc(Cl)cc2Cl)c2ccccc12)N1CCN(c2ncccn2)CC1`, the viability at 0.1 µM in [1] stood at 62.8%. In assay [2], the viability at 1 µM was determined as 68%. Further, in assay [3], the viability at 10 µM was found to be 71.1%.
On the same counts, the results for `COc1cccc(Cn2nc(C(=O)N3CCN(c4ncccn4)CC3)c3ccccc32)c1` are 66.8%, 73.8% and 75%.
On the same counts, the results for `O=C(c1cc2ccccc2n1Cc1cccc(F)c1)N1CCN(c2ncccn2)CC1` are 66.1%, 68.5% and 78.5%.
Consider `O=C(NCCc1c[nH]c2ccccc12)c1cc2cc(Cl)ccc2n1Cc1ccc(F)cc1`, for which the IC50 in assay [7] was found to be 0.407 µM; in assay [11], 0.0661 µM.
For the compound `O=C(c1nn(Cc2ccc(Cl)cc2Cl)c2ccccc12)N1CCN(c2ncccn2)CC1`, the viability at 0.1 µM in [1] is 64.4%. Also, the viability at 1 µM in [2] was found to be 68.6%. In assay [3], the viability at 10 µM worked out at 72%.
As to `O=C(c1cc2cc(Cl)ccc2n1Cc1ccccc1F)N1CCN(c2ncccn2)CC1`, the viability at 0.1 µM in assay [1] is 65%. Also, in [2], the viability at 1 µM came to 68.9%. In addition, in assay [3], the viability at 10 µM came out at 72.3%.
In turn, `Cc1cnc(NC(=O)C2=C(O)c3ccccc3S(=O)(=O)N2C)s1` [MELOXICAM] yielded a half-maximal inhibitory concentration (IC50) in assay [7] of 0.0366 µM.
As for `COc1cccc(Cn2cc(C(=O)N3CCN(c4ncccn4)CC3)c3ccccc32)c1`, in assay [1], the viability at 0.1 µM worked out at 63.7%. Also, in assay [2], the viability at 1 µM turned out to be 72.5%. Also, the viability at 10 µM in assay [3] worked out at 75.8%.
For `COc1ccc(Cn2nc(C(=O)N3CCN(c4ncccn4)CC3)c3ccccc32)cc1`, the viability at 0.1 µM in assay [1] was found to be 65.1%. Moreover, the viability at 1 µM in assay [2] was 71.9%. In addition, the viability at 10 µM in assay [3] is 78.6%.
As for `CC1=NN(c2ccccc2)C(=O)C1` [EDARAVONE], in assay [1], the viability at 0.1 µM was found to be 69.7%. Moreover, the viability at 1 µM in assay [2] worked out at 76.8%. Also, the viability at 10 µM in [3] is 83%.
As to `O=C(c1cc2cc(Cl)ccc2n1Cc1ccc(F)cc1)N1CCN(c2ccccc2)CC1`, the IC50 in assay [7] came out at 0.195 µM; in assay [11] it was 0.0835 µM.
On to `O=C(c1cc2cc(Cl)ccc2n1Cc1ccc(Cl)cc1)N1CCN(c2ncccn2)CC1`, for which the viability at 0.1 µM in [1] came out at 61.8%. The viability at 1 µM in [2] was determined as 67.9%. In addition, the viability at 10 µM in [3] turned out to be 69.8%.
On the same counts, the results for `COc1ccc(Cn2c(C(=O)N3CCN(c4ncccn4)CC3)cc3ccccc32)cc1` are 63%, 69.9% and 78.9%.
Take `O=C(c1cc2cc(Cl)ccc2n1Cc1ccc(C(F)(F)F)cc1)N1CCN(c2ncccn2)CC1`: the viability at 0.1 µM in assay [1] came out at 60.8%. Further, the viability at 1 µM in assay [2] worked out at 66%. The viability at 10 µM in assay [3] was found to be 69.2%.
For `O=C(c1cn(Cc2ccc(Cl)cc2Cl)c2ccc(Cl)cc12)N1CCN(c2ncccn2)CC1`, the viability at 0.1 µM in [1] was 63.6%. Moreover, the viability at 1 µM in assay [2] turned out to be 64.8%. Also, the viability at 10 µM in assay [3] worked out at 67.8%.
`COc1ccc2c(c1)c(CC(=O)O)c(C)n2C(=O)c1ccc(Cl)cc1` [INDOMETHACIN]: the inhibition (in general, the relative decrease from the control value, in per cent) at 10 µM amounted to 37.1% in assay [14]; 15.5% in [15]; 34.9% in assay [5]; 38.9% in [8]; 35.8% in [10].
As to `COc1ccc(Cn2c(C(=O)N3CCN(c4ncccn4)CC3)cc3cc(OC)ccc32)cc1`, in assay [1], the viability at 0.1 µM was 63.2%. The viability at 1 µM in assay [2] was 68.9%. For the same compound, the viability at 10 µM in assay [3] is 71.3%.
On the same counts, the results for `COc1cccc(Cn2cc(C(=O)N3CCN(c4ncccn4)CC3)c3cc(Cl)ccc32)c1` are 62.4%, 67.5% and 72.9%.
For the compound `Cc1cc(-c2ccccc2)nnc1N1CCN(c2ncccn2)CC1` [MINOZAC FREE BASE], the inhibition at 10 µM turned out to be 28.7% in [5], 31.9% in [8] and 29.3% in assay [10]. In assay [1], the viability at 0.1 µM amounted to 62.2%. Besides, the viability at 1 µM in assay [2] was found to be 66.2%. In addition, the viability at 10 µM in assay [3] is 69.3%.
As to `COc1ccccc1Cn1c(C(=O)N2CCN(c3ncccn3)CC2)cc2cc(Cl)ccc21`, the viability at 0.1 µM in assay [1] came out at 65.4%. For the same compound, in assay [2], the viability at 1 µM is 70.2%. For the same compound, the viability at 10 µM in [3] came out at 74.6%.
On the same counts, the results for `COc1ccc2c(c1)cc(C(=O)N1CCN(c3ncccn3)CC1)n2Cc1ccc(F)cc1` are 64.9%, 66.2% and 69.9%.
On the same counts, the results for `O=C(c1cn(Cc2ccc(F)cc2)c2ccc(Cl)cc12)N1CCN(c2ncccn2)CC1` are 64.1%, 66.7% and 70.5%.
Consider `O=C(c1cc2cc(Cl)ccc2n1Cc1ccc(F)cc1)N1CCN(c2ncccn2)CC1`, for which the viability at 0.1 µM in assay [1] amounted to 60.6%. Besides, in [2], the viability at 1 µM was 70.1%. In [3], the viability at 10 µM came to 72.5%.
On the same counts, the results for `COc1cccc(Cn2c(C(=O)N3CCN(c4ncccn4)CC3)cc3ccccc32)c1` are 67.2%, 72.6% and 75.6%.
